Row | melting point [°C] | Structure (SMILES)
1 | 65 to 70 | CCCCCCCCCCCCCCCCCCCCCCCCCCCCOC(=O)c1cccnc1 [1-octacosanyl nicotinate]
2 | 58 to 60 | CCCCCCCCCCCCCCCCCCCCCCCCCCCCOC(=O)c1cccnc1.Cl
